test system: human liver microsomes, metabolic stability half-life; assay: NCATS Human Liver Microsomal (HLM) Stability Profiling; details: higher = more stable; screened at 1 µM (by protocol)
Excerpt: Assay submitter (PI): Dr. Pranav Shah
NIH Center for Advancing Translational Sciences
Pharmacokinetic issues were the leading cause of drug attrition, accounting for approximately 40% of all cases before the turn of the century. To this end, several high-throughput in vitro assays like microsomal stability have been developed to evaluate the pharmacokinetic profiles of compounds in early stages of drug discovery. At NCATS, a single-point rat liver microsomal (RLM) stability assay is used as a Tier I assay, while human liver microsomal (HLM) stability is employed as a Tier II assay. While it is beneficial to have compound libraries screened for HLM stability, the increasing magnitude of hits routinely generated, and the time- and re-source-intensive nature of the assay makes it important to find alternatives. One strategy is to rely on in silico models that have been developed using data generated from these assays. Herein, we describe the development of an HLM stability prediction model using our in-house dataset of ~7,000 compounds, employing both traditional and advanced machine learning methods. Additionally, the strong correlation between our RLM and HLM data was further reinforced by the fact that our HLM model performance improved after adding RLM stability predictions as an input descriptor. […] The best model along with a subset of our dataset has been made publicly accessible on the NCATS@ADME website for the benefit of the greater drug discovery community.
Microsomal Stability Assay
The substrate depletion method, also called the in vitro t1/2 method was used to analyze test compounds. Incubation and liquid handling were carried out using a previously described method (Shah et al., 2016). Briefly, each reaction mixture (110 µL) consisted of a test article (1 µM), human liver microsomes (0.5 mg/mL), and NADPH regenerating system in phosphate buffer at pH 7.4. Samples were incubated in 384-well plates at 37 degrees C for 0, 5, 10, 15, 30 and 60 min. At each time point, 10 µL of the incubation mixture was aspirated into another 384-well plate which contained cold acetonitrile (ACN) with internal standard (albendazole). All plates were centrifuged at 3000 rpm for 20 min at 4 degrees C, and the supernatants were transferred to a 384-well injection plate. Sample quantification and analysis was performed using a previously described method (Shah et al., 2016, Siramshetty et al., 2020).
1: Shah, P. et al. An Automated High-Throughput Metabolic Stability Assay Using an Integrated High-Resolution Accurate Mass Method and Automated Data Analysis Software. Drug Metab Dispos 44, 1653-1661 (2016).
2: Siramshetty et al. Retrospective assessment of rat liver microsomal stability at NCATS: data and QSAR models. Sci Rep 26;10(1):20713 (2020).

**Q.** How did the half-life turn out when `CN(C)[C@@H]1C(=O)C(C(N)=O)=C(O)[C@@]2(O)C(=O)C3=C(O)c4c(O)ccc(Cl)c4[C@@H](O)[C@H]3C[C@@H]12` was run?
**A.** > 120 min

**Q.** `C[C@@H]1O[C@@H](O[C@H]2C[C@@H](O)[C@]3(CO)[C@H]4[C@H](O)C[C@]5(C)[C@@H](C6=CC(=O)OC6)CC[C@]5(O)[C@@H]4CC[C@]3(O)C2)[C@H](O)[C@H](O)[C@H]1O` was tested. Which half-life did it give?
**A.** > 120 min

**Q.** With `CCC(=O)NS(=O)(=O)c1ccc(-c2c(-c3ccccc3)noc2C)cc1` as the molecule, how does the half-life read?
**A.** 48.5 min

**Q.** Which half-life does the source give for `Cn1nc(C(C)(C)C)cc1C(=O)NC(Cc1cccc(Cl)c1)C(=O)NCC#N` (stereo unspecified) here?
**A.** 67.4 min

**Q.** Which half-life does the source give for `CN1CCC(COc2cnc(-c3cccc(Cn4nc(-c5cccc(C#N)c5)ccc4=O)c3)nc2)CC1` here?
**A.** > 120 min

**Q.** With `CN1CCN(CCCN2c3ccccc3Sc3ccc(C(F)(F)F)cc32)CC1` as the molecule, how does the half-life read?
**A.** 22.5 min

**Q.** `Cc1nc(C2CCCCC2)c(-c2ccc(S(N)(=O)=O)c(F)c2)o1` was tested. Which half-life did it give?
**A.** 30.7 min

**Q.** How did the half-life turn out when `CCOCCn1c(C2CCN(CCc3ccc(C(C)(C)C(=O)O)cc3)CC2)nc2ccccc21` was run?
**A.** > 120 min

**Q.** How did the half-life turn out when `CCN1CCC[C@H]1CNC(=O)c1c(O)c(Cl)cc(Cl)c1OC` was run?
**A.** > 120 min

**Q.** `COc1cccc(OC)c1-c1nc(C(=O)N[C@@H](CC(C)C)C(=O)O)cn1-c1ccnc2cc(Cl)ccc12` was tested. Which half-life did it give?
**A.** > 120 min

**Q.** `Cc1cccc(NC(c2ccccc2F)c2ccc3ccc(C)nc3c2O)n1` (stereo unspecified) was tested. Which half-life did it give?
**A.** 14.1 min

**Q.** Which half-life does the source give for `N#Cc1cccc(CN2CCOC[C@H]2c2ncc(-c3ccc(F)cc3)[nH]2)c1` here?
**A.** 3.38 min

**Q.** How did the half-life turn out when `CCC(CC)n1ccc2c(C(=O)NCc3c(C)cc(C)[nH]c3=O)cc(C#N)cc21` was run?
**A.** 3.94 min

**Q.** `CC1CC(C)(C)N(C(=O)CN2C(=O)c3ccccc3C2=O)c2ccccc21` (stereo unspecified) was tested. Which half-life did it give?
**A.** 8.38 min

**Q.** Which half-life does the source give for `Cc1ccc(S(=O)(=O)Nc2ccccc2N2CCCCC2)cc1` here?
**A.** 3.04 min

**Q.** For `CC(=O)NC[C@H]1CN(c2ccc(N3CCN(C(=O)CO)CC3)c(F)c2)C(=O)O1`, which half-life is on record?
**A.** > 120 min

**Q.** With `O=C(O)c1ccc(-c2ccc(N3CCCCCC3)nc2)cc1` as the molecule, how does the half-life read?
**A.** > 120 min

**Q.** With `CC(C)(C)NCC(O)COc1ccc(NC(=O)NC2CCCCC2)cc1` (stereo unspecified) as the molecule, how does the half-life read?
**A.** > 120 min

**Q.** For `COc1ccc(OC)c(C2C(C#N)=C(N)Oc3n[nH]c(-c4ccc5ccccc5c4)c32)c1` (stereo unspecified), which half-life is on record?
**A.** > 120 min

**Q.** With `COc1ccc2c(c1)CC[C@@H](CN(C)CC(=O)O)[C@H]2c1ccccc1` as the molecule, how does the half-life read?
**A.** > 120 min

**Q.** With `Clc1ccc2c(c1)Nc1ccccc1S2` as the molecule, how does the half-life read?
**A.** 6.28 min

**Q.** `S=C(NCc1ccc2c(c1)OCO2)N1CCN(c2ncnc3c2oc2ccccc23)CC1` was tested. Which half-life did it give?
**A.** 18.6 min

**Q.** How did the half-life turn out when `CCOC(=O)c1c(NC(=O)c2ccc(S(=O)(=O)N(C)C3CCCCC3)cc2)sc2c1CCN(C(C)C)C2` was run?
**A.** 2.21 min

**Q.** Which half-life does the source give for `CCCCCC(=O)O[C@]1(C(C)=O)CC[C@H]2[C@@H]3CCC4=CC(=O)CC[C@]4(C)[C@H]3CC[C@@]21C` here?
**A.** 1.86 min

**Q.** `Nc1nc(NCC2CCC(CNS(=O)(=O)c3cccc4ccccc34)CC2)nc2ccccc12` (stereo unspecified) was tested. Which half-life did it give?
**A.** 1.35 min

**Q.** For `CC(=O)[C@H]1CC[C@H]2C3CC=C4C[C@@H](O)CC[C@]4(C)C3CC[C@]12C` (stereo partly specified), which half-life is on record?
**A.** 106 min

**Q.** With `O=C(O)c1ccc(CN2CC(COc3ccccc3)C3(C2)CN(c2ccccc2)C3)cc1` (stereo unspecified) as the molecule, how does the half-life read?
**A.** 64.8 min

**Q.** With `CCC(=O)N[C@@H]1Cc2ccccc2[C@H](c2ccccc2)C1` as the molecule, how does the half-life read?
**A.** 46.1 min

**Q.** `Cc1nc2c3ccccc3nc(NNC(=O)CCC(=O)N3CCN(c4ccc(F)cc4)CC3)n2n1` was tested. Which half-life did it give?
**A.** 40.4 min

**Q.** Which half-life does the source give for `CCc1ccc(CNC(=O)c2sc3ncccc3c2-n2c(C)ccc2C)cc1` here?
**A.** 1.9 min

**Q.** For `CCCNC(=O)C1CCC(Cn2c(=O)c3sccc3n(CC(=O)NCc3ccccc3)c2=O)CC1` (stereo unspecified), which half-life is on record?
**A.** 11.2 min

**Q.** How did the half-life turn out when `COc1ccccc1N1CCN(CCCNc2cc(=O)n(C)c(=O)n2C)CC1` was run?
**A.** > 120 min

**Q.** `O=C(NC1CC1)C1CCCN1C(=O)c1cccc(-c2ccccn2)c1` (stereo unspecified) was tested. Which half-life did it give?
**A.** > 120 min

**Q.** For `NC(=O)c1nnn(Cc2cc(Cl)c(C(=O)c3ccc(Cl)cc3)c(Cl)c2)c1N`, which half-life is on record?
**A.** > 120 min

**Q.** Which half-life does the source give for `COC(=O)[C@H](Cc1cccc(C(=N)N)c1)[C@@H](C)NC(=O)c1ccc(-c2cc[n+]([O-])cc2)cc1` here?
**A.** > 120 min

**Q.** How did the half-life turn out when `O=C(O)c1ccc(OCCN2CCCCC2)cc1` was run?
**A.** > 120 min

**Q.** Which half-life does the source give for `Cc1nn(CC(=O)NCCc2ccccc2)c(=O)c2c1sc1ccccc12` here?
**A.** 6.82 min

**Q.** With `COc1ccc(CNc2nc(N(CCO)CCO)nc3c2ncn3C(C)C)cc1` as the molecule, how does the half-life read?
**A.** 35.6 min

**Q.** For `CC(C)(O)c1ccccc1CC[C@H](SCC1(CC(=O)O)CC1)c1cccc(/C=C/c2ccc3ccc(Cl)cc3n2)c1`, which half-life is on record?
**A.** 36.5 min

**Q.** `C/C(=C(/OCCOc1ccc(Cl)cc1)c1ccc(Cl)cc1Cl)n1ccnc1` was tested. Which half-life did it give?
**A.** 10.1 min

**Q.** Which half-life does the source give for `CCOC(=O)[C@H](CCc1ccccc1)N[C@H]1CS[C@H](c2cccs2)CN(CC(=O)O)C1=O` here?
**A.** 6.54 min

From PubChem BioAssay AID1963597 (National Center for Advancing Translational Sciences (NCATS), 2024)
